According to the NIST ThermoML archive (doi:10.1021/je200327s):

Experiment: xn = mol fraction of the nth substance listed
Settings: 101 kPa, Liquid, Vibrating tube method

c1ccc2c(c1)sc1ccccc12 [dibenzothiophene] + CCCCCCCCCCCC
mass density [kg/m3]
Settings | 298.2 K | 313.2 K
x1 = 0.0037 | – | 735.448
x1 = 0.0046 | – | 735.694
x1 = 0.0074 | 747.569 | 736.633
x1 = 0.0094 | 748.147 | –
x1 = 0.0098 | – | 737.333
x1 = 0.0142 | – | 738.752
x1 = 0.0187 | – | 740.177
x1 = 0.0191 | 751.276 | –
x1 = 0.024 | – | 741.874
x1 = 0.0285 | 754.322 | –
x1 = 0.0305 | – | 743.953
x1 = 0.0325 | – | 744.662
x1 = 0.0372 | – | 746.081
x1 = 0.0378 | 757.354 | –
x1 = 0.0651 | – | 755.317

c1ccc2c(c1)sc1ccccc12 [dibenzothiophene] + CCCCCCCCCCC
mass density [kg/m3]
Settings | x1 = 0.0035 | x1 = 0.0069 | x1 = 0.0087 | x1 = 0.0186 | x1 = 0.0263 | x1 = 0.0286 | x1 = 0.0342 | x1 = 0.0436
298.2 K | 738.065 | 739.235 | 739.863 | 743.359 | – | 746.909 | 748.935 | –
313.2 K | 726.939 | 728.106 | 728.741 | 732.22 | 735.021 | 735.767 | 737.778 | 741.11

c1ccc2c(c1)sc1ccccc12 [dibenzothiophene] + CCCCCCC
298.2 K
Settings | mass density [kg/m3]
x1 = 0.0056 | 683.108
x1 = 0.0119 | 686.774
x1 = 0.0176 | 690.099
x1 = 0.0218 | 692.551

c1ccc2c(c1)sc1ccccc12 [dibenzothiophene] + CCCCC
298.2 K
Settings | mass density [kg/m3]
x1 = 0.0042 | 624.932
x1 = 0.0077 | 627.957
x1 = 0.0112 | 630.962
x1 = 0.0158 | 634.865

c1ccc2c(c1)sc1ccccc12 [dibenzothiophene] + CCCCCC
298.2 K
Settings | mass density [kg/m3]
x1 = 0.0097 | 661.714
x1 = 0.0147 | 665.156
x1 = 0.0174 | 667.026

Cc1cccc2c1sc1c(C)cccc12 [4,6-dimethyldibenzo[b,d]thiophene] + CCCCCCCCCCCC
mass density [kg/m3]
Settings | x1 = 0.0031 | x1 = 0.0053 | x1 = 0.0076
298.2 K | 746.102 | 746.82 | 747.546
313.2 K | 735.193 | 735.931 | 736.664

c1ccc2c(c1)sc1ccccc12 [dibenzothiophene] + CCCCCCCCCC
mass density [kg/m3]
Settings | x1 = 0.0034 | x1 = 0.0061 | x1 = 0.0082 | x1 = 0.0162 | x1 = 0.0259 | x1 = 0.0314
298.2 K | 727.461 | 728.541 | 729.331 | 732.459 | 736.262 | 738.412
313.2 K | 716.064 | 717.143 | 717.957 | 721.088 | 724.901 | 727.044
